According to US11814680B2, “Biomarkers for detecting senescent cells” (Universität für Bodenkultur Wien, priority 2017, dated 2023):
Entries after “also recorded” stand apart in the source; their conditions may differ. Marks after values point to notes of the source that are not given here.

What was measured:
Type in all cases: in vivo, mouse
[1] = tested on: p16-3MR mice; experiment: Next generation sequencing of circulating miRNAs in serum after induction (dox) and removal (GCV) of senescent cells; settings: for log fold change: p16-3MR mice; for avg TPM dox: dox-treated p16-3MR mice
Procedure: p16-3MR (Demaria et al, 2014, Developmental Cell 31:722-733) mice were bred in house and maintained in the AALAC-accredited Buck Institute for Research on Aging (Novato, Calif.) animal facility. 10 to 12-week-old p16-3MR male mice were used for experiments. Mice were divided in 4 groups and each group consisted of 3 animals. In group A, control mice were injected with PBS. In group B, mice were treated with Ganciclovir (GCV) (Sigma-Aldrich) dissolved in PBS for 5 consecutive days. In group C, mice were treated with one dose of Doxorubicine hydrochloride (Sigma-Aldrich) dissolved in PBS. In group D, mice were first treated with Doxorubicine and then treated 10 days later with GCV. Mice were intraperitoneally injected with one dose of 10 mg/kg of Doxorubicine hydrochloride, and GCV was administered daily by intraperitoneal injections for 5 consecutive days at concentration of 25 mg/kg in PBS. 4 days after the last GCV dose, animals were euthanized with CO2 and blood was withdrawn immediately. Blood was then incubated for 30 min at room temperature and centrifuged at 3400×g for 10 min. Serum was carefully collected in a sterile tube without disturbing the cell pellet and stored at −80° C. for further experiments.
Total RNA extraction was performed from 200 μl of serum using the Qiagen miRNeasy™ extraction kit (Qiagen, Germany). RNA yield was quality checked for homogenous extraction efficiency and hemolysis on the basis qPCR amplification of spiked-in as well as hemolysis-responsive RNAs (Blondal et al). In total 2 μl total RNA were used for library preparation using the CleanTag library preparation protocol (Trilink Biotechnologies, USA), which uses chemically modified adapters to prevent adapter self-ligation. Library quality and yield was controlled using Bioanalyzer DNA-1000 chips. Due to the high purity, libraries were not purified prior to sequencing on an ILLUMINA™ NextSeq 500 sequencing system with 50 bp single-end reads.
Next-generation sequencing was performed at Exiqon (Denmark). Raw reads were quality filtered for a Q-score of 30 or higher. Adapter sequences were trimmed and the remaining reads were mapped against the mouse genome, miRBase, non-coding RNA databases and classified as either microRNAs, small RNAs, genome mapping RNAs or outmapped RNA sequences. Read counts were added for all microRNA isoforms (isomiRs) and normalized by dividing the microRNA read count by the total number of mapped reads and multiplying by 1 million (Tags Per Million). Tags per millions were used for data mining (PCA and hierarchical clustering) using the web-tool clustvis (Metsalu and Vilo 2015).
For differential expression analysis, the EdgeR statistical software package was used. For normalization, the trimmed mean of M-values method was used based on log-fold and absolute gene wise changes in expression levels between samples (TMM normalization). […] Additionally, the normalization step offsets under-sampling effects (due to highly expressed microRNAs dominating the read set) by identifying scaling factors that minimize log-fold changes between samples across the majority of microRNAs.
For exploratory data analysis we applied principal component analysis (PCA) to the dataset of 50 most variable microRNAs according to the coefficient of variation. The PCA plot clearly indicates an effect of […] (dox) treatment on circulating microRNA levels in p16-3MR mice compared to the PBS treated control animals (FIG. 2). […] Analysis of differentially circulating miRNAs was focused on changes between dox treated versus control (PBS) to identify those miRNAs that are modulated by induction of senescence, as well as dox-GCV vs dox, in order to identify miRNAs that change after removal of senescent cells. A p-value threshold of <0.05 without correction for multiple testing was used. […] GCV-treated animals are supposed to have a reduced number of senescent cells compared to PBS due to forced apoptosis. […]

[2] = tested on: p16-3MR mice; experiment: RT-qPCR verification of serum circulating microRNA changes, one-way ANOVA; settings: for One-way ANOVA Senolytic Treatment (DOX/GCV) / One-way ANOVA Senescence (DOX vs PBS): serum; for One-way ANOVA Senolytic Treatment (DOX/GCV): DOX/GCV compared to DOX; for One-way ANOVA Senescence (DOX vs PBS): n=8 per group, male and female mice
Procedure: p16-3MR (Demaria et al, 2014, Developmental Cell 31:722-733) mice were bred in house and maintained in the AALAC-accredited Buck Institute for Research on Aging (Novato, Calif.) animal facility. 10 to 12-week-old p16-3MR […] mice were used for experiments. Mice were divided in 4 groups and each group consisted of 8 animals, 5 female, and 3 male, respectively. In group A, control mice were injected with PBS. In group B, mice were treated with Ganciclovir (GCV) (Sigma-Aldrich) dissolved in PBS for 5 consecutive days. In group C, mice were treated with one dose of Doxorubicine hydrochloride (Sigma-Aldrich) dissolved in PBS. In group D, mice were first treated with Doxorubicine and then treated 10 days later with GCV. Mice were intraperitoneally injected with one dose of 10 mg/kg of Doxorubicine hydrochloride, and GCV was administered daily by intraperitoneal injections for 5 consecutive days at concentration of 25 mg/kg in PBS. 4 days after the last GCV dose, animals were euthanized with CO2 and blood was withdrawn immediately. Blood was then incubated for 30 min at room temperature and centrifuged at 3400×g for 10 min. Serum was carefully collected in a sterile tube without disturbing the cell pellet and stored at −80° C. for further experiments.
Total RNA extraction was performed from 200 μl of serum using the Qiagen miRNeasy extraction kit (Qiagen, Germany). RNA yield was quality checked for homogenous extraction efficiency and hemolysis on the basis qPCR amplification of spiked-in as well as hemolysis-responsive RNAs (Blondal et al). In total 2 μl total RNA were used for reverse transcription using the Exiqon Universal RT kit II (Exiqon, Denmark). The obtained cDNA samples were pre-diluted 1:40 and subsequently mixed with SYBR Green® Mix (Exiqon, Denmark) to achieve a 1:100 dilution. The mix was distributed to primer-coated 384-well plates containing dried primer pairs for 96 selected microRNA or quality control assays. QPCR amplification was performed on a Roche LightCycler 480 II, using the manufacturer's recommendation for annealing, extension and denaturation.
Raw Cq-values were computed using the 2nd derivative method. Melting curves were checked for peaks to ensure specificity of the amplification reactions. Cq-values were subsequently normalized using Spike-In controls as references, to reduce technical noise in the data.
(§1) Statistical analysis was performed using Medcalc (version 18.2.1). Normal distribution was assessed using D'Agostino-Pearson test, where normality was accepted at p>0.05. One-way ANOVA together together with Student-Newman-Keuls test for all pairwise comparisons (post-hoc tests) was used to identify significant changes between groups (p<0.05). To assess the discriminatory power of individual microRNAs, receiver operating characteristic (ROC) analysis was applied. ROC curves were plotted using sensitivity (y-axis) and 1-specificity (x-axis) and the area under the ROC curve (AUC) was calculated. MicroRNAs with AUC-values of >0.7 were considered as good discriminators/biomarkers. MicroRNAs with AUC-values >0.8 were considered very good discriminators/biomarkers.

[3] = tested on: p16-3MR mice; experiment: ROC analysis of discriminatory power of circulating microRNAs; settings: serum, RT-qPCR, symbol after the number = significance; for ROC Analysis AUC Senescence: DOX vs PBS; for ROC Analysis AUC Senolytic Treatment: DOX/GCV vs DOX
Procedure: as §1
In order to assess the diagnostic power of circulating microRNAs for the exposure with senescence inducing substances (DOX) as well as the efficacy of senolytic treatment, ROC analysis was performed and the area-under-the-curve (AUC) was calculated. […] Table 23 below summarizes AUC values as well as 95% confidence intervals for 24 selected circulating microRNAs.

Molecule: COc1cccc2c1C(=O)c1c(O)c3c(c(O)c1C2=O)C[C@@](O)(C(=O)CO)C[C@@H]3O[C@H]1C[C@H](N)[C@H](O)[C@H](C)O1.Cl [Doxorubicine hydrochloride, reference compound]
- circulating miRNA levels upon induction of senescence ([1]; PCA of 50 most variable microRNAs, compared to PBS, in words): significantly changed

Molecule: miR-27a-3p: circulating microRNA biomarker, SEQ ID No. 5 (UUCACAGUGGCUAAGUUCCGC; expressed or natural sequence; listed as Homo sapiens)
- change of serum level following senolytic treatment (DOX/GCV compared to DOX) ([2]; p<0.05, in words): significantly changed
- One-way ANOVA Senolytic Treatment (DOX/GCV) [2]: * (significant p < 0.05)
- One-way ANOVA Senescence (DOX vs PBS) [2]: ○
- serum level after rescue with dox+GCV (removal of senescent cells) ([1]; NGS, in words): decreased
- serum level in dox-treated animals compared to PBS controls ([1]; NGS, in words): higher; also recorded: increased
- log fold change ([1]; serum miRNA, NGS, dox vs pbs): 1.08
- avg TPM dox ([1]; serum miRNA, NGS): 16.50 TPM
- ROC Analysis AUC Senescence [3]: 0.664°
- ROC Analysis AUC Senolytic Treatment [3]: 0.719+

Molecule: mmu-let-7f-5p: circulating microRNA, SEQ ID No. 2 (UGAGGUAGUAGAUUGUAUAGUU; expressed or natural sequence; listed as Homo sapiens)
- log fold change ([1]; serum miRNA, NGS, dox vs pbs): −1.29
- avg TPM dox ([1]; serum miRNA, NGS): 178.25 TPM

Molecule: Nc1nc(O)c2ncn(COC(CO)CO)c2n1 [ganciclovir, Ganciclovir, reference compound]
- serum miRNAs compared to PBS treated animals ([1]; GCV 25 mg/kg i.p. for 5 days, in words): consistent decrease

Molecule: mmu-miR-144-5p: circulating microRNA, SEQ ID No. 7 (GGAUAUCAUCAUAUACUGUAAG; expressed or natural sequence; listed as Homo sapiens)
- log fold change ([1]; serum miRNA, NGS, dox vs pbs): −1.06
- avg TPM dox ([1]; serum miRNA, NGS): 34.50 TPM

Molecule: mmu-miR-143-3p: circulating microRNA, SEQ ID No. 4 (UGAGAUGAAGCACUGUAGCUC; expressed or natural sequence; listed as Homo sapiens)
- log fold change ([1]; serum miRNA, NGS, dox vs pbs): −1.57
- avg TPM dox ([1]; serum miRNA, NGS): 393.00 TPM

Molecule: miR-34a-5p: circulating microRNA biomarker, SEQ ID No. 1 (UGGCAGUGUCUUAGCUGGUUGU; expressed or natural sequence; listed as Homo sapiens)
- regulation in serum after exposure to DOX compared to PBS ([2]; independent of gender, in words): significantly (up- or down-regulated)
- One-way ANOVA Senolytic Treatment (DOX/GCV) [2]: ○
- One-way ANOVA Senescence (DOX vs PBS) [2]: * (significant p < 0.05)
- serum level after rescue with dox+GCV (removal of senescent cells) ([1]; NGS, in words): decreased
- serum level in dox-treated animals compared to PBS controls ([1]; NGS, in words): higher; also recorded: increased
- serum level after rescue with dox+GCV (removal of senescent cells) ([1]; NGS, in words, listed as miR-34a): significant decline
- avg TPM GCV ([1]; serum miRNA, NGS, comparison group of Table 17, printed GCV): 8.00 TPM
- avg TPM dox + GCV ([1]; serum miRNA, NGS, dox + GCV treated p16-3MR mice): 2.33 TPM
- log fold change ([1]; serum miRNA, NGS, dox + gcv vs gcv (so in the source)): −1.34
- log fold change ([1]; serum miRNA, NGS, dox vs pbs): 1.13
- avg TPM dox ([1]; serum miRNA, NGS): 8.00 TPM
- ROC Analysis AUC Senescence [3]: 1.000*
- ROC Analysis AUC Senolytic Treatment [3]: 0.672°
